{"source": "patent US8481740B2", "about": "“Imidazo[1,2 a] pyridine-6-carboxamide derivatives, their use for the treatment of colon cancer and their method of manufacture” (University of the Witwatersrand, Johannesburg, priority 2009, dated 2013)", "key": {"HT-29 cell line": {"tested_on": "HT-29 cell line", "assay": "MTT cell viability assay, HT-29", "type": "cell-based, human", "details": "read-out: IC50 (molar concentration that inhibited growth by 50%), 24 hours, 5 μM to 100 μM", "description": "(§1) The colon cancer cells were initially exposed to the different imidazo[1,2-a]pyridines compounds at 100 μM (final concentration in the well) at 37° C. for 24 hours using an MTT assay for cell viability quantification.\n(§2) The HT-29 and Caco-2 cells were exposed to the novel imidazo[1,2-a]pyridine class of compounds according to the invention in concentrations ranging from 5 μM to 100 μM for 24 hours.\n(§3) The study made use of two colonic carcinoma cell lines, namely the HT-29 and Caco-2 cell lines. The HT-29 and Caco-2 cell lines were obtained from Highveld Biological, South Africa. Both cell lines were cultured in Dulbecco's Modified Eagles Medium (DMEM) (Highveld Biological, South Africa) and supplemented with 5% heat-inactivated heat-inactivated foetal bovine serum (FBS). 1 ml 10 kU penicillin G/10 mg streptomycin sulphate (pen/strep) (Highveld Biological, South Africa) and 0.4% 100 mM sodium pyruvate per 500 ml DMEM were added after filter sterilisation.\nThe two colon cancer cells were counted and diluted into fresh media at concentrations of 30 000 cells/well and an aliquot of 180 μl was seeded to each well in a 96-well plate. The plates were then placed in an incubator (37° C., 5% CO2, volume fraction) and the cells were allowed to divide for a period of 24 hours.\nThe cells were exposed to the different classes of synthetic compounds at 100 μM (final concentration in the well) at 37° C. for 24 hours using an MTT assay for cell viability quantification. After the 24 hour incubation, the plates were removed from the incubator, and an aliquot of 50 μl 0.5% MTT (USB, USA) in 1 mM PBS (pH 7.4) was layered on the media. The plates were incubated for 2 hours at 37° C. The plates were than centrifuged at 3000 rpm (Afrox Sorvall T 6000D) for 5 minutes. Following centrifugation, the medium was very carefully aspirated. Formazan crystals were dissolved in 200 μl DMSO. The absorbance was then read at 540 nm using the Absorbance Labsystems Multiskan MS, version 2.4. The controls used in the assay consisted of i) medium alone without cells, ii) medium with or without the tested compounds and iii) medium with Camptothecin.\nCompounds showing cytotoxicity at a concentration of 100 μM were further diluted to obtain an IC50 concentration. All tests were performed in triplicate."}, "white blood cells": {"tested_on": "white blood cells", "assay": "MTT cell viability assay, white blood cells", "type": "cell-based", "description": "Cell viability was determined by the MTT assay after the white blood cells were exposed to the novel compounds for 24 hours at an initial concentration of 100 μM. Camptothecin was used as a positive control for cytotoxicity."}, "caspase 3 in HT-29 cells": {"tested_on": "caspase 3 in HT-29 cells", "assay": "Caspase 3 colorimetric assay, HT-29 lysates", "type": "cell-based, human", "details": "for time of maximal caspase 3 expression / time at which high caspase 3 levels were observed: time of exposure; for initiation of apoptosis compared with camptothecin: from caspase 3 levels", "description": "(§4) As it is well known that caspases play a vital role in the execution of apoptosis, the level of caspase 3 and caspase 8 enzymatic activity in the cell lysates were determined using a caspase 3 and caspase 8 colorimetric assay kit (FIGS. 3A and B). Maximal caspase 8 expression in HT-29 cells was observed within 2 hours of exposure to all the CDK compounds. […] Maximal caspase 3 expression in the HT-29 cells was observed after 8 hours of exposure to 7 and 13, and 4 hours of exposure to 12. Maximal caspase 8 expression in the HT-29 cells was observed within 2 hours of exposure to 14, 4 and 6, and within 4 hours after exposure to 3. Maximal caspase 3 expression in the HT-29 cells was observed after 2 hours of exposure to 4 and 6, and after 4 hours of exposure to 14 and 3.\n(§5) The activation of caspases initiates apoptosis in mammalian cells. Caspase 3 and Caspase 8 were detected using the CPP32 and FLICE colorimetric Assay kits, respectively. The following method (obtained from Biovision research products) was performed.\n(§6) The treated HT-29 and Caco-2 cells were harvested and resuspended in 50 μl of chilled cell lysis buffer and incubated on ice for 10 minutes. The cells were centrifuged for 1 minute (10000 g) and the supernatant (cytosolic extract) was transferred to a fresh tube and placed on ice. The protein concentration was assayed using the Biorad assay method. 100-200 μg protein to 50 μl cell lysis buffer was diluted for each assay. 50 μl of 2× Reaction buffer (containing 10 mM DTT) was added to each sample. 5 μl of 4 mM IETD-pNA substrate for Caspase 8 and 5 μl of 4 mM DEVD-pNA substrate for Caspase 3 was added to each sample and incubated at 37° C. for 1-2 hours. The samples were read at 405 nm in the microtiter plate reader. Time dependent studies were performed for protease activity by attaining results 2, 4, 6, 12, and 24 hours after treatment with the compounds."}, "Caco-2 cells": {"tested_on": "Caco-2 cells", "assay": "JC-1 mitochondrial membrane potential flow cytometry, Caco-2", "type": "cell-based, human", "details": "100 μM, 24 hours", "description": "(§7) The dysfunction of the mitochondria is believed to be an important step in the commitment of the cell to apoptosis. To assess whether disruption of the mitochondrial transmembrane potential (Δψ) was involved in the apoptotic action of the novel imidazo[1,2-a]pyridines, the HT-29 and Caco-2 cells were treated for 24 hours with 100 μM of the novel compounds and then analysed by flow cytometry by using the cationic fluorescent dye 5,5′,6,6′-tetrachloro-1,1′,3,3′-tetraethylbenzimidazolcarbocyanine iodide (JC-1) to measure mitochondrial membrane depolarization in intact viable cells.\n(§8) When energy is released during the oxidation reactions in the mitochondrial respiratory chain, it is stored as a negative electrochemical gradient across the mitochondrial membrane. Under these situations, the mitochondrial membrane potential (Δψ) is polarized. During the early stages of apoptosis, a collapse of the Δψ which results in a depolarized Δψ, is sometimes noticed. […] The changes in Δψ have also been noticed during necrosis (depolarisation) and cell cycle arrest (hyperpolarisation). Understanding the Δψ and how it alters during apoptosis and necrosis, may assist in determining the function of the mitochondria in these and other cellular processes. […]"}, "[1]": {"tested_on": "caspase 3 in Caco-2 cells", "assay": "Caspase 3 colorimetric assay, Caco-2 lysates", "type": "cell-based, human", "details": "time of exposure", "description": "as §4, §5, §6"}, "caspase 8 in HT-29 cells": {"tested_on": "caspase 8 in HT-29 cells", "assay": "Caspase 8 colorimetric assay, HT-29 lysates", "type": "cell-based, human", "details": "time of exposure", "description": "as §4, §5\nThe treated HT-29 and Caco-2 cells were harvested and resuspended in 50 μl of chilled cell lysis buffer and incubated on ice for 10 minutes. The cells were centrifuged for 1 minute (10000 g) and the supernatant (cytosolic extract) was transferred to a fresh tube and placed on ice. […] The samples were read at 405 nm in the microtiter plate reader. […]"}, "Caco-2 cell line": {"tested_on": "Caco-2 cell line", "assay": "MTT cell viability assay, Caco-2", "type": "cell-based", "details": "Homo sapiens, read-out: IC50 (molar concentration that inhibited growth by 50%), 24 hours, 5 μM to 100 μM", "description": "as §1, §2\nas §3, with “1 ml 10 kU penicillin G/10 mg streptomycin sulphate (pen/strep) (Highveld Biological, South Africa) and 0.4% 100 mM sodium pyruvate per 500 ml DMEM were added after filter sterilisation.” left out\nThe two colon cancer cells were counted and diluted into fresh media at concentrations of 30 000 cells/well and an aliquot of 180 μl was seeded to each well in a 96-well plate. […]\nThe cells were exposed to the different classes of synthetic compounds at 100 μM (final concentration in the well) at 37° C. for 24 hours using an MTT assay for cell viability quantification. […] The absorbance was then read at 540 nm using the Absorbance Labsystems Multiskan MS, version 2.4. […]"}, "HT-29 cells": {"tested_on": "HT-29 cells", "details": "100 μM, 24 hours", "description": "as §7, §8"}}, "note": "Where two headings read alike, the source gives them in different places."}
{"smiles": "COc1ccc(-c2nc3ccc(C)cn3c2Nc2c(C)cccc2C)c(OC)c1", "note": "[Compound 13]", "values": [{"measurement": "IC50", "setting": "HT-29 cell line", "result": "10 ± 2.69", "unit": "µM"}, {"measurement": "White Blood Cell Viability %", "setting": "white blood cells; 100 µM", "result": "97.479 ± 1.178", "unit": "%"}, {"measurement": "time of maximal caspase 3 expression", "setting": "caspase 3 in HT-29 cells", "result": 8, "unit": "h"}]}
{"smiles": "COc1ccc(-c2nc3ccc(Br)cn3c2Nc2c(C)cccc2C)c(OC)c1", "note": "[Compound 12]", "values": [{"measurement": "IC50", "setting": "HT-29 cell line; Homo sapiens", "result": "22 ± 1.17", "unit": "µM"}, {"measurement": "White Blood Cell Viability %", "setting": "white blood cells; 24 h, 100 µM", "result": "96.311 ± 5.023", "unit": "%"}, {"measurement": "time of maximal caspase 3 expression", "setting": "caspase 3 in HT-29 cells", "result": 4, "unit": "h"}, {"measurement": "cells undergoing apoptosis (JC-1), average", "setting": "Caco-2 cells", "result": 81.91, "unit": "%"}]}
{"smiles": "COc1ccc(-c2nc3ccc(-c4ccccc4)cn3c2Nc2c(C)cccc2C)cc1OC", "note": "[Compound 14]", "values": [{"measurement": "White Blood Cell Viability %", "setting": "white blood cells; 24 h, 100 µM", "result": "77.345 ± 1.005", "unit": "%"}, {"measurement": "initiation of apoptosis compared with camptothecin", "setting": "caspase 3 in HT-29 cells", "result": "earlier stage than camptothecin"}, {"measurement": "time at which high caspase 3 levels were observed", "setting": "caspase 3 in HT-29 cells", "result": 2, "unit": "h"}, {"measurement": "time of maximal caspase 3 expression", "setting": "caspase 3 in HT-29 cells", "result": 4, "unit": "h"}, {"measurement": "time at which high caspase 3 levels were observed", "setting": "[1]", "result": 2, "unit": "h"}]}
{"smiles": "COc1ccc(OC)c(-c2nc3ccc(Br)cn3c2NCc2ccccc2)c1", "note": "[Compound 4]", "values": [{"measurement": "White Blood Cell Viability %", "setting": "white blood cells; 100 µM", "result": "88.943 ± 1.996", "unit": "%"}, {"measurement": "initiation of apoptosis compared with camptothecin", "setting": "caspase 3 in HT-29 cells", "result": "earlier stage than camptothecin"}, {"measurement": "time at which high caspase 3 levels were observed", "setting": "caspase 3 in HT-29 cells", "result": 2, "unit": "h"}, {"measurement": "time of maximal caspase 3 expression", "setting": "caspase 3 in HT-29 cells", "result": 2, "unit": "h"}, {"measurement": "time at which high caspase 3 levels were observed", "setting": "[1]", "result": 2, "unit": "h"}]}
{"smiles": "COc1ccc(-c2nc3ccc(C)cn3c2Nc2c(C)cccc2C)cc1OC", "note": "[Compound 3]", "values": [{"measurement": "White Blood Cell Viability %", "setting": "white blood cells; 100 µM", "result": "76.176 ± 0.567", "unit": "%"}, {"measurement": "time at which high caspase 3 levels were observed", "setting": "caspase 3 in HT-29 cells", "result": 4, "unit": "h"}, {"measurement": "time of maximal caspase 3 expression", "setting": "caspase 3 in HT-29 cells", "result": 4, "unit": "h"}, {"measurement": "time of maximal (peak) caspase 8 expression", "setting": "caspase 8 in HT-29 cells", "result": "≤ 4", "unit": "h"}, {"measurement": "time at which high caspase 3 levels were observed", "setting": "[1]", "result": 4, "unit": "h"}]}
{"smiles": "COc1ccc(-c2nc3ccc(Br)cn3c2Nc2c(C)cccc2C)cc1OC", "note": "[Compound 6]", "values": [{"measurement": "White Blood Cell Viability %", "setting": "white blood cells; 24 h, 100 µM", "result": "83.762 ± 1.389", "unit": "%"}, {"measurement": "initiation of apoptosis compared with camptothecin", "setting": "caspase 3 in HT-29 cells", "result": "earlier stage than camptothecin"}, {"measurement": "time at which high caspase 3 levels were observed", "setting": "caspase 3 in HT-29 cells", "result": 2, "unit": "h"}, {"measurement": "time of maximal caspase 3 expression", "setting": "caspase 3 in HT-29 cells", "result": 2, "unit": "h"}, {"measurement": "time at which high caspase 3 levels were observed", "setting": "[1]", "result": 2, "unit": "h"}]}
{"smiles": "CC[C@@]1(O)C(=O)OCc2c1cc1n(c2=O)Cc2cc3ccccc3nc2-1", "note": "[camptothecin, reference compound]", "values": [{"measurement": "IC50", "setting": "HT-29 cell line; Homo sapiens", "result": "9.99 ± 1.41", "unit": "µM"}, {"measurement": "IC50", "setting": "Caco-2 cell line", "result": "9.55 ± 2.21", "unit": "µM"}, {"measurement": "White Blood Cell Viability %", "setting": "white blood cells; 100 μM, 24 hours, MTT", "result": "33.782 ± 2.031", "unit": "%"}]}
{"smiles": "NC(=O)c1ccc2nc(-c3ccc(OCc4ccccc4)cc3OCc3ccccc3)c(NC3CCCCC3)n2c1", "note": "[Compound 7]", "values": [{"measurement": "IC50", "setting": "HT-29 cell line", "result": "9.2 ± 0.83", "unit": "µM"}, {"measurement": "White Blood Cell Viability %", "setting": "white blood cells; 100 µM", "result": "93.834 ± 0.271", "unit": "%"}, {"measurement": "time of maximal caspase 3 expression", "setting": "caspase 3 in HT-29 cells", "result": 8, "unit": "h"}, {"measurement": "cells undergoing apoptosis (JC-1)", "setting": "HT-29 cells", "result": 79.62, "unit": "%"}, {"measurement": "healthy cells remaining after treatment (JC-1)", "setting": "HT-29 cells", "result": 20.33, "unit": "%"}]}
